Assay results from patent US8435978B2, “Substituted sulfonamide compounds” (Gruenenthal GmbH, priority 2006, dated 2013).

Assays:
human B1R receptor = biological target: T1, human B1R receptor (Homo sapiens, UniProt P46663); assay: Functional study on the bradykinin receptor 1 (B1R), FLIPR Ca2+ assay, hB1R cells; type: cell-based; conditions: agonist Lys-Des-Arg9-bradykinin 0.5 nM, % inhibition compared with the maximum achievable inhibition; for inhibition at 10 µM: CHO-K1, test substance 10 μM, read-out: B1R Antagonism, human [10 μM] % Inhibition; for B1R Antagonism, human [10 μM] % Inhibition: test substance 10 μM, hB1R CHO K1 cells
T1 construct: host or cells: CHO K1 cells (Chinese hamster ovary), stably transfected
T1 sequence (P46663 1-353): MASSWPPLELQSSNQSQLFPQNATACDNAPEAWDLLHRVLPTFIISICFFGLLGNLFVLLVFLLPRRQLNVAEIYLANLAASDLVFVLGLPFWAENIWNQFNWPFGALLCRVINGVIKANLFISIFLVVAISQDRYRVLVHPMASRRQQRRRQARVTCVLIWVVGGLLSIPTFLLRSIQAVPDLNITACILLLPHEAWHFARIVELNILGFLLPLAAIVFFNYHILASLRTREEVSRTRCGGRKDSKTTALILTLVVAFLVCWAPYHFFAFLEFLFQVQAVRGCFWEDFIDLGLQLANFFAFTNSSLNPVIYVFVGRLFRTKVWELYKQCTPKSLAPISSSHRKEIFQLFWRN
Description: (§1) The agonistic or antagonistic action of substances can be quantified on the bradykinin receptor 1 (B1R) of the species human and rat with ectopically expressing cell lines (CHO K1 cells) and with the aid of a Ca^2+-sensitive dye (Fluo-4) using a fluorescent imaging plate reader (FLIPR). The indication in % activation is based on the Ca^2+ signal after addition of Lys-Des-Arg^9-bradykinin (0.5 nM) or Des-Arg^9-bradykinin (100 nM). Antagonists result in a suppression of the Ca^2+ influx following administration of the agonist. The % inhibition in comparison with the maximum achievable inhibition is indicated.
(§2) The agonistic or antagonistic action of substances can be determined on the bradykinin receptor 1 (B1R) of the species human and rat using the following assay. According to this assay, the Ca^2+ influx through the channel is quantified with the aid of a Ca^2+-sensitive dye (type Fluo-4, Molecular Probes Europe BV, Leiden, Netherlands) using a Fluorescent Imaging Plate Reader (FLIPR, Molecular Devices, Sunnyvale, USA).
(§3) Chinese hamster ovary cells (CHO K1 cells) which have been stably transfected with the human B1R gene (hB1R cells, Euroscreen s.a., Gosselies, Belgium) or with the B1R gene of the rat (rB1R cells, Axxam, Milan, Italy) are used. For functional studies, the cells are plated out on black 96-well plates having a clear base (BD Biosciences, Heidelberg, Germany) in a density of 20,000-25,000 cells/well. The cells are incubated overnight at 37° C. and with 5% CO2 in culture medium (hB1R cells: Nutrient Mixture Ham's F12, Gibco Invitrogen GmbH, Karlsruhe, Germany; rB1R cells: D-MEM/F12, Gibco Invitrogen GmbH, Karlsruhe, Germany), with 10 vol. % FBS (fetal bovine serum, Gibco Invitrogen GmbH, Karlsruhe, Germany). On the following day, the cells are loaded for 60 minutes at 37° C. with 2.13 μM Fluo-4 (Molecular Probes Europe BV, Leiden, Netherlands) in HBSS buffer (Hank's buffered saline solution, Gibco Invitrogen GmbH, Karlsruhe, Germany) […] (Sigma-Aldrich, Taufkirchen, Germany) and 10 mM HEPES (Sigma-Aldrich, Taufkirchen, Germany). The plates are then washed twice with HBSS buffer, and HBSS buffer additionally containing 0.1% BSA (bovine serum albumin; Sigma-Aldrich, Taufkirchen, Germany), 5.6 mM glucose and 0.05% gelatin (Merck KGaA, Darmstadt, Germany) is added to the plates. After incubation for a further 20 minutes at room temperature, the plates are inserted into the FLIPR for Ca^2+ measurement. The Ca^2+-dependent fluorescence is measured before and after the addition of substances (λex=488 nm, λem=540 nm). Quantification is carried out by measuring the highest fluorescence intensity (FC, fluorescence counts) over time.
(§4) The FLIPR protocol consists of 2 substance additions. Test substances (10 μM) are first pipetted onto the cells and the Ca^2+ influx is compared with the control (hB1R: Lys-Des-Arg^9-bradykinin 0.5 nM; rB1R: Des-Arg^9-bradykinin 100 nM). This gives the activation in %, based on the Ca^2+ signal after addition of Lys-Des-Arg^9-bradykinin (0.5 nM) or Des-Arg^9-bradykinin (100 nM).
(§5) After 10 minutes' incubation, 0.5 nM Lys-Des-Arg^9-bradykinin (hB1R) or 100 nM Des-Arg^9-bradykinin (rB1R) are applied, and the influx of Ca^2+ is likewise determined. Antagonists lead to suppression of the Ca^2+ influx. The % inhibition compared with the maximum achievable inhibition is calculated.

B1R receptor of the rat = biological target: T2, B1R receptor of the rat (Rattus norvegicus, UniProt P97583); assay: Functional study on the bradykinin receptor 1 (B1R), FLIPR Ca2+ assay, rB1R cells; type: cell-based; conditions: agonist Des-Arg9-bradykinin 100 nM, % inhibition compared with the maximum achievable inhibition; for inhibition at 10 µM: CHO-K1, test substance 10 μM, read-out: B1R Antagonism, rat [10 μM] % Inhibition
T2 construct: host or cells: CHO K1 cells (Chinese hamster ovary), stably transfected
T2 sequence (P97583 1-337): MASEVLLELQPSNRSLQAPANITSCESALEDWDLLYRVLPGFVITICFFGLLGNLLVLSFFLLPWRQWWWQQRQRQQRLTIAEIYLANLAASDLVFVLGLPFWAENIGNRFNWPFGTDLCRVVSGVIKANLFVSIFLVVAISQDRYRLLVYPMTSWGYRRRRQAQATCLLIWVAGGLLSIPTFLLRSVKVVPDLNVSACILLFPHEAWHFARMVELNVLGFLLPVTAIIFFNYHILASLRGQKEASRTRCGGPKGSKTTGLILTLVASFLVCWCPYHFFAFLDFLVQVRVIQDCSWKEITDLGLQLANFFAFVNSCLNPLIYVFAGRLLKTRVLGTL
Description: as §1, §2, §3, §4, §5

| inhibition at 10 µM (human B1R receptor) | inhibition at 10 µM (B1R receptor of the rat) | B1R Antagonism, human [10 μM] % Inhibition (human B1R receptor) | B1R Antagonism, rat [10 μM] % Inhibition (B1R receptor of the rat; test substance 10 μM, rB1R CHO K1 cells) | SMILES |
| --- | --- | --- | --- | --- |
| 95% | 98.9% | – | – | Cc1cc(C)c(S(=O)(=O)N2CCCCC2COCC(=O)N2CCC(N3CCCC3)CC2)c(C)c1 (stereo not drawn) [Example 19, 2-((1-(mesitylsulfonyl)piperidin-2-yl)methoxy)-1-(4-(pyrrolidin-1-yl)piperidin-1-yl)-ethanone] |
| 94.9% | 86.4% | – | – | O=C(COCC1CCCCN1S(=O)(=O)c1ccc(Cl)c(Cl)c1)N1CCC(CCN2CCCCC2)CC1 (stereo not drawn) [Example 20, 2-((1-(3,4-dichlorophenylsulfonyl)piperidin-2-yl)methoxy)-1-(4-(2-(piperidin-1-yl)-ethyl)piperidin-1-yl)ethanone] |
| – | 108% | 93.47% | – | COc1cc(C)c(S(=O)(=O)N2CCCCC2COCC(=O)NCc2ccc(N3CCOCC3)cc2)c(C)c1 (stereo not drawn) [Example 21, 2-[1-(4-methoxy-2,6-dimethyl-phenylsulfonyl)-piperidin-2-ylmethoxy]-N-(4-morpholin-4-yl-benzyl)-acetamide] |
| 92.6% | 21.4% | – | – | CN1CCC(N2CCN(C(=O)COCC3CCCCN3S(=O)(=O)c3cccc(C(F)(F)F)c3)CC2)CC1 (stereo not drawn) [Example 22, 1-[4-(1-methyl-piperidin-4-yl)-piperazin-1-yl]-2-[1-(3-trifluoromethyl-phenylsulfonyl)-piperidin-2-ylmethoxy]-ethanone] |
| 92.3% | 85.3% | – | – | O=C(COCC1CCCCN1S(=O)(=O)c1cccc2ccccc12)N1CCC(N2CCCC2)CC1 (stereo not drawn) [Example 23, 2-((1-(naphthalen-1-ylsulfonyl)piperidin-2-yl)methoxy)-1-(4-(pyrrolidin-1-yl)piperidin-1-yl)ethanone] |

The remaining lines, values behind:

| SMILES | inhibition at 10 µM (human B1R receptor) | inhibition at 10 µM (B1R receptor of the rat) | B1R Antagonism, human [10 μM] % Inhibition (human B1R receptor) | B1R Antagonism, rat [10 μM] % Inhibition (B1R receptor of the rat; test substance 10 μM, rB1R CHO K1 cells) |
| --- | --- | --- | --- | --- |
| Cc1cc(C)c(S(=O)(=O)N2CCCCC2COCC(=O)NCC2CCCN(Cc3ccccc3)C2)c(C)c1 (stereo not drawn) [Example 12, N-(1-benzyl-piperidin-3-ylmethyl)-2-[1-(2,4,6-trimethyl-phenylsulfonyl)-piperidin-2-ylmethoxy]-acetamide] | 99.1% | 74.9% | – | – |
| CN1CCN(c2ccc(CNC(=O)COCC3CCCCN3S(=O)(=O)c3c(Cl)cc(Cl)cc3Cl)cc2)CC1 (stereo not drawn) [Example 13, N-[4-(4-methyl-piperazin-1-yl)-benzyl]-2-[1-(2,4,6-trichloro-phenylsulfonyl)-piperidin-2-ylmethoxy]-acetamide] | 97.7% | 113% | – | – |
| COc1cc(C)c(S(=O)(=O)N2CCCCC2COCC(=O)NCc2ccc(N3CCCCC3)cc2)c(C)c1 (stereo not drawn) [Example 14, 2-[1-(4-methoxy-2,6-dimethyl-phenylsulfonyl)-piperidin-2-ylmethoxy]-N-(4-piperidin-1-yl-benzyl)-acetamide] | 97% | 104% | – | – |
| CN1CCN(Cc2ccc(CNC(=O)COCC3CCCCN3S(=O)(=O)c3c(Cl)cc(Cl)cc3Cl)cc2)CC1 (stereo not drawn) [Example 15, N-[4-(4-methyl-piperazin-1-ylmethyl)-benzyl]-2-[1-(2,4,6-trichloro-phenylsulfonyl)-piperidin-2-ylmethoxy]-acetamide] | 96% | 92.5% | – | – |
| O=C(COCC1Cc2ccccc2N1S(=O)(=O)c1ccc(Cl)c(Cl)c1)NCC1CCCN(Cc2ccccc2)C1 (stereo not drawn) [Example 16, N-(1-benzyl-piperidin-3-ylmethyl)-2-[1-(3,4-dichloro-phenylsulfonyl)-2,3-dihydro-1H-indol-2-ylmethoxy]-acetamide] | 95.9% | 25.5% | – | – |
| O=C(COCC1Cc2ccccc2CN1S(=O)(=O)c1ccc(Cl)cc1Cl)N1CCC(N2CCCC2)CC1 (stereo not drawn) [Example 17] | – | – | 95.53% | 96.94% |
| COc1cc(C)c(S(=O)(=O)N2CCCC2COCC(=O)NCc2ccc(N3CCN(C)CC3)cc2)c(C)c1 (stereo not drawn) [Example 18, 2-[1-(4-methoxy-2,6-dimethyl-phenylsulfonyl)-pyrrolidin-2-ylmethoxy]-N-[4-(4-methyl-piperazin-1-yl)-benzyl]-acetamide] | 95.3% | 110% | – | – |
